Test results taken from patent US20250332268A1, “CONJUGATE AND COMPOSITION AS WELL AS PREPARATION METHOD THEREFOR AND USE THEREOF” (priority 2022, published 2025).
Where two headings read alike, the source gives them in different places. Non-standard residues stand in square brackets, D forms with d. Residues, ends and D or L forms follow the SMILES beside them. *: point of attachment. {Cy5} = Cy5 fluorescent dye; Dolaproine = CO[C@@H]([C@@H]1CCCN1)[C@@H](C)C(=O)O; Dil = CC[C@H](C)[C@H](NC)[C@@H](CC(=O)O)OC; X1 = C[C@@H](N*)[C@@H](O)c1ccccc1; NMeV = CN[C@H](C(=O)O)C(C)C

Columns and labels:
[1] = system: U118MG glioma cells subcutaneous tumor; assay: In vivo anti-tumor activity, tumor volume (Experimental Example 3); design: species or system NOD-SCID mice
Description: In this experimental example, the in vivo anti-tumor activity of the resulting conjugate 20 in mice was investigated.
The mice in this experiment were purchased from SPF Co., Ltd, the germline was NOD-SCID, the grade was SPF, male, 6-8 weeks old; U118MG glioma cells were purchased from Jennio.
The above culture medium containing U118MG cells was inoculated on subcutaneous site of the right forelimb of mice, and the injection volume was 100 μL. Each mouse was inoculated with 1×10^7 U118MG glioma cells.
The above resulting conjugate AP2 was formulated into 1.94 mg/mL of solution with PBS. Conjugate 20 was formulated into 0.625 mg/mL, 1.25 mg/mL and 2.06 mg/mL of solution with PBS, respectively (all calculated based on the amount of oligonucleotide). […]
For test group 3d, the above conjugate 20 solution with a concentration of 0.625 mg/mL was administered by tail intravenous injection with a single administration volume of 10 μL/g, a single administration dosage of […] (calculated based on the mass of oligonucleotide), wherein the dosage of MMAE contained was equivalent to 0.3 mg/kg. […]
Long diameter and short diameter of the tumors were measured by in vitro measurement method. The tumor volume was calculated according to the formula ½(long diameter×short diameter^2). […]

[2] = system: U118MG subcutaneous tumor; assay: In vivo activity of long-interval administration against U118MG subcutaneous tumor model mice (Experimental Example 7); design: species or system NOD-SCID mice; details: MMAE only, 0.1 mg/kg and 0.3 mg/kg subcutaneous on D8, D11, D15, D29, D32, D36
Description: According to the method of experimental example 2, 42 mice inoculated with U118MG subcutaneous tumor were obtained, and the mice were kept after injection.
MMAE was dissolved into solutions with a concentration of 0.03 mg/mL and 0.01 mg/mL with 10% DMSO+90% serum-free DMEM medium (volume ratio); conjugate 21 was dissolved into a solution with a concentration of 0.5 mg/mL and 0.165 mg/mL (calculated according to aptamer); and comparative conjugate 25 was dissolved into solutions with a concentration of 0.5 mg/mL and 0.165 mg/mL (calculated according to aptamer). […] The mice were weighed before administration, and the administration volume was calculated by weight.
For blank control group, each mouse was administered with DMEM medium with a single administration volume of 10 μL/g mouse body weight; For test group 7a, each mouse was administered with MMAE with a concentration of 0.01 mg/ml with a single administration volume of 10 μL/g mouse body weight. It was calculated that a single administration dosage was 0.1 mg/kg.
For test group 7b, each mouse was administered with conjugate 21 with a concentration of 0.165 mg/ml with a single administration volume of 10 μL/g mouse body weight. It was calculated that a single administration dosage was 1.65 mg/kg (the corresponding MMAE dosage was 0.1 mg/kg). […]

[3] = system: U118MG orthotopic tumor (brain glioma); details: mouse, in vivo, iv, 3 mg/kg
Description: (§1) U118MG human glioma cells (purchased from Guangzhou Jennio Biotech Co., Ltd) were cultured in DMEM complete medium (MACGENE company, Cat No. CM15019) supplemented with 10% fetal bovine serum (FBS, RMBIO company) at 37° C. in an incubator containing 5% CO2/95% air.
(§2) The cells were digested with 0.25% pancreatic enzyme and collected. The supernatant was aspirated, and the cells were resuspended in DMEM medium supplemented with 10% FBS to formulate into cell culture medium with a concentration of 4×10^7 cells/mL.
(§3) Experimental animals were 6 NOD-SCID mice, male, 12 weeks old (purchased from SPF (Beijing) Biotechnology Co., LTD.). The above cell culture medium was inoculated into NOD-SCID mice. […]
(§4) The administration dosage of all animals was calculated based on their body weights, the administration volume was all 10 μL/g, the administration dosage was 3 mg/kg per animal (calculated based on the amount of aptamer), 2 mice were administrated in each group and designated as test group 4a and control group 4b, respectively. […]
(§5) 24 h after administration, one mouse in each group was respectively killed and brain tissue was taken, and the remaining mice were killed at 48 h after administration and brain tissues were taken. The brain tissues of mice were taken for fluorescence imaging in IVIS Lumina Series III.

[4] = system: U118MG orthotopic tumor (brain glioma); assay: In vivo distribution in U118MG cell orthotopic tumor model mice, brain fluorescence imaging (Experimental Example 4); details: 24 h and 48 h after administration; 3 mg/kg tail intravenous injection
Description: as §1, §2, §3, §4, §5

[5] = system: A549 subcutaneous tumor (human lung adenocarcinoma cells); assay: In vivo activity against A549 subcutaneous tumor model mice (Experimental Example 9); details: administered D8, D12, D15, D19 (MMAE equivalent 0.3 mg/kg) and D46, D50, D54 (0.6 mg/kg); versus 9b (MMAE) and 9e (comparative conjugate 24)
Description: According to the method of experimental example 2, 30 mice inoculated with A549 subcutaneous tumors were obtained, and the mice were kept after injection.
Conjugate 20 and conjugate 21 were dissolved into conjugate solutions with a concentration of 1 mg/mL (calculated according to aptamer) with serum-free DMEM medium. Comparative conjugate 24 were dissolved into a conjugate solution with a concentration of 0.8 mg/mL (calculated according to aptamer). MMAE was dissolved into a solution with a concentration of 0.06 mg/mL with 10% DMSO+90% serum-free DMEM medium (volume ratio).
7 days after the inoculation of A549 human lung cancer cells, all mice were grouped, with 6 mice in each group, and each mouse was administrated. The day of administration was designated as D8. The mice were weighed before administration, and the administration volume was calculated by the mouse body weight. […]
For blank control group 9a, each mouse was administered with DMEM with a single administration volume of 5 μL/g mouse body weight; For control group 9b, each mouse was administered with MMAE with a single administration volume of 5 μL/g mouse body weight. It was calculated that a single administration dosage was 0.3 mg/kg; […]
Tumor volumes were measured on D1, D9, D16, D19, D22, D26, D30, D36, D40, D43, D47, D50, D54, and D57. The blank control group was measured on D50, and then the experiment was terminated. […]

CC[C@H](C)[C@@H]([C@@H](CC(=O)N1CCC[C@H]1[C@H](OC)[C@@H](C)C(=O)N[C@H](C)[C@@H](O)c1ccccc1)OC)N(C)C(=O)[C@@H](NC(=O)[C@@H](NC)C(C)C)C(C)C [MMAE, Monomethyl auristatin E, reference compound] (H-[NMeV]V[Dil][Dolaproine]-X1)
increase rate of tumor volume ([1]; control group 3c, 0.3 mg/kg tail intravenous injection on D8, D12, D16, D20): increase rate of tumor volume was decreased
increase rates of tumor volume [2]: slightly decreased

CY5-CmUmGmGmAmGmUmUmCmAmGmAmCmGmUmGmUmUmGmCmUmCmUmUmCmCmGmAmUmCmUmCm (DNA CUGGAGUUCAGACGUGUUGCUCUUCCGAUCUC; all 2'-O-methyl, 5' {Cy5}, backbone not given here) [AP2]
tumor volume over time ([1]; control group 3b, 15.5 mg/kg tail intravenous injection on D8, D12, D16, D20): increased rapidly
fluorescence signal in brain tissue [3]: strong fluorescence signals at the inoculation tumor location

CY5-UfCfUfAUfGGCfUfGCfCfGAUfCfUfGGUfCfUfCfCfAUfGUfACfGUf (UCUAUGGCUGCCGAUCUGGUCUCCAUGUACGU; 2'-fluoro at CU, RNA at AG, 5' {Cy5}, backbone not given here) [Comparative AP19]
fluorescence signal in brain tissue [4]: no fluorescence signal at all in the brain

MMAE-CmUmGmGmAmGmUmUmCmAmGmAmCmGmUmGmUmUmGmCmUmCmUmUmCmCmGmAmUmCmUmCm (DNA CUGGAGUUCAGACGUGUUGCUCUUCCGAUCUC; all 2'-O-methyl, backbone not given here; MMAE drug conjugated at 5' end via linker, further chemistry not fully specified) [Conjugate 20, dye group of AP2 replaced with MMAE; linking group 2-(phosphate ester group-(CH2)6—S—)-MC-Val-Cit-PAB]
tumor volumes at each time period [5]: smaller than those of the control groups 9b and 9e

MMAE-CmUmGmGmAmGmUmUmCmAmGmAmCmGmUmUmGmUmGmCmUmCmUmUm (CUGGAGUUCAGACGUUGUGCUCUU; all 2'-O-methyl, backbone not given here; MMAE drug conjugated at 5' end via linker, further chemistry not fully specified) [Conjugate 21]
tumor volumes at each time period [5]: smaller than those of the control groups 9b and 9e
